From the supplement of paper PMC10307832

Legend:
Assay in all cases: relative viability (nuclei count vs DMSO), 5 days (fraction); higher = more cells survive
Quizartinib = compound: CC(C)(C)c1cc(NC(=O)Nc2ccc(-c3cn4c(n3)sc3cc(OCCN5CCOCC5)ccc34)cc2)no1 [Quizartinib]
Outline: (§1)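 After an overnight hold at 37 °C, lung cancer cell lines in 1536-well plates were pinned with five library-drug doses (not always all listed), each √10 from the next, on vehicle-anchored plates. The cells stayed 5 days without fresh medium, then a one-step fix, permeabilisation and Hoechst stain preceded 4× imaging and MetaXpress nuclear counts. A plate passed only with control CV under 25% and at least one doubling. Viability is the median, over plates, of treated-well nuclei relative to vehicle-well nuclei.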

YM155 = compound: COCC[n+]1c2c(n(Cc3cnccn3)c1C)C(=O)c1ccccc1C2=O [YM155]
Outline: as §1

Quizartinib + Alpelisib = compound: CC(C)(C)c1cc(NC(=O)Nc2ccc(-c3cn4c(n3)sc3cc(OCCN5CCOCC5)ccc34)cc2)no1 [Quizartinib] + Cc1nc(NC(=O)N2CCC[C@H]2C(N)=O)sc1-c1ccnc(C(C)(C)C(F)(F)F)c1 [Alpelisib] (partner 2 µM)
Outline: (§2)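 Lung cancer cell lines in 1536-well plates got either a single drug or a fixed anchor-drug dose together with five library-drug doses (not always all listed) in √10 steps, by pin tool, on the day after seeding. Nuclei were counted after 5 days, and relative viability is the treated-to-vehicle ratio of nuclei counts. Values are medians of duplicate plates.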

YM155 + Pemetrexed = compound: COCC[n+]1c2c(n(Cc3cnccn3)c1C)C(=O)c1ccccc1C2=O [YM155] + Nc1nc2[nH]cc(CCc3ccc(C(=O)N[C@@H](CCC(=O)O)C(=O)O)cc3)c2c(=O)[nH]1 [Pemetrexed] (partner 0.2 µM)
Outline: as §2

Cell Line	relative viability (Quizartinib; 0.001 µM)	relative viability (Quizartinib; 0.003162 µM)	relative viability (Quizartinib; 0.01 µM)	relative viability (Quizartinib; 0.03162 µM)	relative viability (Quizartinib; 0.1 µM)	relative viability (YM155; 0.002 µM)	relative viability (YM155; 0.006325 µM)	relative viability (YM155; 0.02 µM)	relative viability (YM155; 0.06325 µM)	relative viability (Quizartinib + Alpelisib; first compound 0.001 µM)	relative viability (Quizartinib + Alpelisib; first compound 0.003162 µM)	relative viability (Quizartinib + Alpelisib; first compound 0.01 µM)	relative viability (Quizartinib + Alpelisib; first compound 0.03162 µM)	relative viability (Quizartinib + Alpelisib; first compound 0.1 µM)	relative viability (YM155 + Pemetrexed; first compound 0.002 µM)	relative viability (YM155 + Pemetrexed; first compound 0.006325 µM)	relative viability (YM155 + Pemetrexed; first compound 0.02 µM)	relative viability (YM155 + Pemetrexed; first compound 0.06325 µM)
NCI-H2405	0.986	1.03	0.955	0.958	1.06	0.952	0.903	0.956	0.595	0.579	0.748	0.847	0.733	0.978	0.886	0.961	0.914	0.452
NCI-H3122	0.885	0.977	1.07	1.01	0.982	0.984	0.992	1.01	0.976	0.567	0.693	1.01	0.831	0.651	0.185	0.214	0.189	0.186
PC-3 [JPC-3]	0.978	1.02	1.04	0.852	1.08	1.01	1.07	1.1	1	0.953	1.01	1.14	1.02	0.998	0.978	1.22	1.07	0.967
PC-14	0.884	0.985	1.09	0.833	1.18	0.939	1.02	1.03	0.931	0.854	0.903	1.03	0.877	0.89	0.126	0.136	0.148	0.141
RERF-LC-KJ	0.954	0.926	1.03	0.99	0.915	1	0.973	1.01	1.01	0.78	0.597	0.782	0.747	0.69	0.487	0.467	0.487	0.471
SK-LU-1	0.88	0.861	1.11	0.999	1.06	0.86	1.06	1.07	0.91	0.96	0.876	1.17	0.982	0.81	0.946	0.956	0.91	0.684
SK-MES-1	0.944	0.96	1.09	0.732	0.924	0.956	1.02	0.942	0.692	0.838	0.424	1.06	0.865	0.97	0.937	1.03	0.955	0.291
SW 1573	0.87	0.971	1.09	0.481	1.08	1.02	0.939	0.803	0.394	0.779	0.728	0.836	0.686	0.793	0.867	0.835	0.362	0.0865
UMC-11	0.723	0.945	0.983	0.966	0.988	0.889	0.998	1.04	0.959	0.924	0.948	1.13	0.947	1.1	0.817	0.823	0.878	0.802
